# Measured values: patent US11807693B2 (priority 2014, dated 2023)
# Where two headings read alike, the source gives them in different places. Starred links: 1 amine or outer side, 2 acyl side, 3 side chain; linkers in the order of their positions; H or OH if unused. Non-standard residues stand in square brackets, D forms with d. Residues, ends and D or L forms follow the SMILES beside them. *: point of attachment. Oic = O=C(O)[C@@H]1C[C@@H]2CCCC[C@@H]2N1; Phe(4-Cl) = N[C@@H](Cc1ccc(Cl)cc1)C(=O)O; dPhe(4-Cl) = N[C@H](Cc1ccc(Cl)cc1)C(=O)O; γGlu = O=C(O)[C@H](CCC(=O)[*:2])N[*:1]; NMeR = CN[C@@H](CCCNC(=N)N)C(=O)O; Tridecanoyl = CCCCCCCCCCCCC(=O)*; hArg = N=C(N)NCCCC[C@H](N)C(=O)O; Cha = N[C@@H](CC1CCCCC1)C(=O)O; αMeL = CC(C)C[C@](C)(N)C(=O)O; Pip = O=C(O)[C@@H]1CCCCN1; Nle = CCCC[C@H](N)C(=O)O; Orn = NCCC[C@H](N)C(=O)O; AEEA = NCCOCCOCC(=O)O; βAla = NCCC(=O)O
# How the values were obtained:
# human APJ receptor = target: T1, human APJ receptor (Homo sapiens, UniProt P35414); assay: [35S] GTPγS assay, human APJ receptor; format: biochemical; conditions: Table 16
# T1 construct: expressed in transfected cells
# T1 sequence (P35414 1-380): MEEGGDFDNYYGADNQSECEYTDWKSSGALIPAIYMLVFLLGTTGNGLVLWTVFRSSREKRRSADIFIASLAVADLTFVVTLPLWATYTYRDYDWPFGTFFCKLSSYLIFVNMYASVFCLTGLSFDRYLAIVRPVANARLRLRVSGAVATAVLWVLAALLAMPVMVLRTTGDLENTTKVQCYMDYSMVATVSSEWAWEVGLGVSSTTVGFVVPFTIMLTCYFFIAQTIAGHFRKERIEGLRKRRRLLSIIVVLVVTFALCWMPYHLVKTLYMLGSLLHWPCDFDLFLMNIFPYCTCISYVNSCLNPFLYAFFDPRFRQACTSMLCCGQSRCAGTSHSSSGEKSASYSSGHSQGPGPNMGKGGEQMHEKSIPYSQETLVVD
# [1] = In vitro stability in rat kidney homogenate; format: in vitro ADME; conditions: rat, tissue homogenate
# Procedure, shortened: (§1)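 High resolution LC-MS of the supernatant gave remaining peptide. Samples came from 37° C. incubations of 5 μM apelin peptide in rat plasma or liver or kidney homogenate over 4 hr, stopped with methanol plus internal standard.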
# rat APJ receptor = target: T2, rat APJ receptor (Rattus norvegicus, UniProt Q9JHG3); assay: [35S] GTPγS assay, rat APJ receptor; format: biochemical
# T2 construct: expressed in transfected cells
# T2 sequence (Q9JHG3 1-377): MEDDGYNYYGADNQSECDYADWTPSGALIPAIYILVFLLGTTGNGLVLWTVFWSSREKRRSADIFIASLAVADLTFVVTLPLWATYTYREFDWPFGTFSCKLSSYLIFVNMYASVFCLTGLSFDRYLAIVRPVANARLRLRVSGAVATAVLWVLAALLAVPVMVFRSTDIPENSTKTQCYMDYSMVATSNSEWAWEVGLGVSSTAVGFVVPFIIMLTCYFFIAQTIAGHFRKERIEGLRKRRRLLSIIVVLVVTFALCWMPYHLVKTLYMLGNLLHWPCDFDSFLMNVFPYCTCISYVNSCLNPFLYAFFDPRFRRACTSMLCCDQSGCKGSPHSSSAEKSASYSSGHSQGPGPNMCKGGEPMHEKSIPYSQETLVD
# Method: The membranes were incubated with modified peptides in the assay buffer. […] Bound [^35S] GTPγS was separated from free radiolabel by filtration. The filter bound radioactivity was determined by liquid scintillation counting.
# [2] = In vitro stability in rat plasma; format: in vitro ADME
# Procedure, shortened: as §1
# [3] = In vitro stability in rat liver homogenate; format: in vitro ADME; conditions: tissue homogenate
# Procedure, shortened: as §1
# [4] = Table 16, read-out: EC50 Rat APJ Receptor
# [5] = rat APJ receptor, read-out: EC50 Rat APJ Receptor
EC50 (human APJ receptor),"remaining at 4 h, 5 μM [1]",EC50 (rat APJ receptor; [4]),"remaining at 4 h, 5 μM [2]","remaining at 4 h, 5 μM [3]",EC50 (rat APJ receptor; [5]),SMILES
6.11 nM,,,,,,CCCCCCCCCCCCC(=O)N[C@@H](CCC(=O)NCCOCCOCC(=O)NCCOCCOCC(=O)N[C@@H](CCC(N)=O)C(=O)N[C@@H](CCCNC(=N)N)C(=O)N1CCC[C@H]1C(=O)N(C)[C@@H](CCCNC(=N)N)C(=O)N[C@@H](CC1CCCCC1)C(=O)N[C@@H](CO)C(=O)N[C@@H](Cc1c[nH]cn1)C(=O)N[C@@H](CCCCN)C(=O)NCC(=O)N1[C@H](C(=O)N[C@@H](CCCC)C(=O)N2CCC[C@H]2C(=O)N[C@H](Cc2ccc(Cl)cc2)C(=O)O)C[C@@H]2CCCC[C@@H]21)C(=O)O [compound 381] ({Tridecanoyl-γGlu-AEEA-AEEA}-QRP[NMeR][Cha]SHKG[Oic][Nle]P[dPhe(4-Cl)]-OH)
> 4170 nM,,,,,,CCCCCCCCCCCCC(=O)N[C@@H](CCC(=O)NCCOCCOCC(=O)NCCOCCOCC(=O)N[C@H](CCC(N)=O)C(=O)N[C@@H](CCCCNC(=N)N)C(=O)N1CCC[C@H]1C(=O)N(C)[C@@H](CCCNC(=N)N)C(=O)N[C@@H](CC1CCCCC1)C(=O)N[C@@H](CO)C(=O)N[C@@H](Cc1c[nH]cn1)C(=O)N[C@@H](CCCCN)C(=O)NCCC(=O)N1[C@H](C(=O)N[C@@H](CCCC)C(=O)N2CCC[C@H]2C(=O)N[C@H](Cc2ccc(Cl)cc2)C(=O)O)C[C@@H]2CCCC[C@@H]21)C(=O)O [compound 294] ({Tridecanoyl-γGlu-AEEA-AEEA}-[dQ][hArg]P[NMeR][Cha]SHK[βAla][Oic][Nle]P[dPhe(4-Cl)]-OH)
,< 1%,1.49 nM,> 90%,2%,,CCCCCCCCCCCCC(=O)N[C@@H](CCC(=O)NCCOCCOCC(=O)NCCOCCOCC(=O)N[C@@H](CCCNC(=N)N)C(=O)N[C@@H](CCC(N)=O)C(=O)N[C@@H](CCCC)C(=O)N1CCC[C@H]1C(=O)N[C@@H](CCCCNC(=N)N)C(=O)N[C@@H](CC1CCCCC1)C(=O)N[C@@H](CO)C(=O)N[C@@H](C)C(=O)N[C@@H](CCCCN)C(=O)NCC(=O)N1CCCC[C@H]1C(=O)N[C@@H](CCCC)C(=O)N1CCC[C@H]1C(=O)N[C@@H](Cc1ccc(Cl)cc1)C(=O)O)C(=O)O [compound 564] ({Tridecanoyl-γGlu-AEEA-AEEA}-RQ[Nle]P[hArg][Cha]SAKG[Pip][Nle]P[Phe(4-Cl)]-OH)
,6%,,2%,< 1%,5.94 nM,CCCC[C@H](NC(=O)[C@@H]1CCCN1C(=O)CNC(=O)[C@H](CCCCN)NC(=O)[C@H](Cc1c[nH]cn1)NC(=O)[C@H](CO)NC(=O)[C@](C)(CC(C)C)NC(=O)[C@H](CCCCNC(=N)N)NC(=O)[C@@H]1CCCN1C(=O)[C@@H](CCCNC(=N)N)NC(=O)[C@H](CCC(N)=O)NC(=O)COCCOCCNC(=O)COCCOCCNC(=O)CC[C@H](NC(=O)CCCCC(=O)O)C(=O)O)C(=O)N1CCC[C@H]1C(=O)N[C@@H](Cc1ccc(Cl)cc1)C(=O)O [compound 515]
,1%,16.5 nM,87%,2%,,CCCCCCCCCCCCC(=O)N[C@@H](CCC(=O)NCCOCCOCC(=O)NCCOCCOCC(=O)N[C@@H](CCC(N)=O)C(=O)N(C)[C@@H](CCCNC(=N)N)C(=O)N[C@@](C)(CC(C)C)C(=O)N[C@@H](CO)C(=O)N[C@@H](Cc1c[nH]cn1)C(=O)N[C@@H](CCCCN)C(=O)NCC(=O)N1[C@H](C(=O)N[C@@H](CCCC)C(=O)N2CCC[C@H]2C(=O)N[C@@H](Cc2ccc(Cl)cc2)C(=O)O)C[C@@H]2CCCC[C@@H]21)C(=O)O [compound 397] ({Tridecanoyl-γGlu-AEEA-AEEA}-Q[NMeR][αMeL]SHKG[Oic][Nle]P[Phe(4-Cl)]-OH)
,< 1%,,> 90%,40.3%,1.02 nM,CCCCCCCCCCCCC(=O)N[C@@H](CCC(=O)NCCOCCOCC(=O)NCCOCCOCC(=O)N[C@@H](CCCN)C(=O)N[C@@H](Cc1ccccc1)C(=O)N[C@@H](CCCCNC(=N)N)C(=O)N[C@@H](CCCCNC(=N)N)C(=O)N[C@@H](CCC(N)=O)C(=O)N(C)[C@@H](CCCNC(=N)N)C(=O)N1CCC[C@H]1C(=O)N(C)[C@@H](CCCNC(=N)N)C(=O)N[C@@H](CC1CCCCC1)C(=O)N[C@@H](CO)C(=O)N[C@@H](Cc1c[nH]cn1)C(=O)N[C@@H](CCCCN)C(=O)NCC(=O)N1[C@H](C(=O)N[C@@H](CCCC)C(=O)N2CCC[C@H]2C(=O)N[C@@H](Cc2ccc(Cl)cc2)C(=O)O)C[C@@H]2CCCC[C@@H]21)C(=O)O [compound 297] ({Tridecanoyl-γGlu-AEEA-AEEA}-[Orn]F[hArg][hArg]Q[NMeR]P[NMeR][Cha]SHKG[Oic][Nle]P[Phe(4-Cl)]-OH)
